Results on two molecules are retold here after patent publication US6653064B1, “Method for identifying compounds useful in the therapy of bone disorders” (Boehringer Ingelheim International GmbH, priority 1999, dated 2003).

Each structure is given as a SMILES string.

In one assay the test system is endogenous fra-1. The assay is described as follows: RT-PCR analysis of fra-1 transcripts in primary osteoblast cultures. Type of assay: cell-based, mice. The settings on record: wild-type osteoblasts, cultures 7 days after plating, not expressed without stimulation. The protocol:
To further investigate the consequences of Fra-1 expression on osteoblasts, primary osteoblasts were prepared from the calvariae of neonatal (6-8 days old) mice and differentiated in vitro. Calvariae were sequentially digested for 10 minutes in α-MEM containing 0.1% collagenase and 0.2% dispase. Cells isolated by fractions 2 to 5 were combined as an osteoblastic cell population, expanded for 2 days in α-MEM with 10% FCS and replated at a density of 10^4 cells per cm^2. After reaching confluency, medium was supplemented with 5 mM β-glycerophosphate and 100 μg/ml ascorbic acid. There was no difference in the proliferation between wild-type and transgenic osteoblasts. The time course of differentiation was followed by ALP activity and by the deposition of mineralized extracelluar matrix. For ALP activity measurement, cells were washed with PBS and sonicated in 10 mM Tris-HCl buffer (pH 8.0). ALP activity in the lysate was measured using a calorimetric assay (Sigma). […] In transgenic cultures, areas of mineralized extracellular matrix monitored by alizarine red S staining were first observed at day 12, when no stained areas were present in wild-type cultures (FIG. 5b). […]
5′-GTACCGAGACTACGGGGAACCGG-3′ SEQ. […] Exogenous and endogenous fra-1 was detected in transgenic osteoblasts, irrespective of induction by phorbol myristate acetate (PMA) (FIG. 5c). […]

The subject of the next assay is Fra-1 expression. The settings on record: substance known to induce Fra-1 expression (Yoshioka et al., 1995); cited from earlier work.

`CCCCCCCCCCCCCC(=O)O[C@@H]1[C@@H](C)[C@@]2(O)[C@@H](C=C(CO)C[C@]3(O)C(=O)C(C)=C[C@@H]23)[C@@H]2C(C)(C)[C@]12OC(C)=O` [PMA, phorbol myristate acetate]: the “expression of endogenous fra-1 upon stimulation” value in the assay with endogenous fra-1 is on record as “induced”.
Regarding `CC(C)(C)c1cc(O)ccc1O` [tert-butylhydroquinone], the “Fra-1 expression in cultured cells” value in the assay on Fra-1 expression is “induce Fra-1 expression”.
